ChEMBL document CHEMBL3992552, “Mechanisms of action and structure-activity relationships of cytotoxic flavokawain derivatives” (Bioorg Med Chem, 2017)
Active and inactive are the calls of the source. The rule behind the calls is not given here.

How the values were obtained:
NCI-H727 [1] = test: Cytotoxicity against human NCI-H727 cells assessed as cell viability after 48 hrs by Hoechst 33342 staining based assay; type: functional; settings: NCI-H727, 48 h
[2] = Selectivity index, ratio of IC50 for human fibroblasts to IC50 for human HaCaT cells
Fibroblast = test: Cytotoxicity against human fibroblasts assessed as cell viability after 48 hrs by Hoechst 33342 staining based assay
[3] = Selectivity index, ratio of IC50 for human fibroblasts to IC50 for human NCI-H727 cells
PC-3 [4] = test: Induction of apoptosis in human PC3 cells harboring p53 mutant assessed as upregulation of cyclinB1 after 48 hrs by Hoechst staining based assay; type: functional, cell-based
MDA-MB-231 [5] = test: Cell cycle arrest in human MDA-MB-231 cells harboring p53 mutant assessed as mitotic index at 10 uM measured after 48 hrs by Hoechst staining based fluorescence assay (reference value: 2.1); type: functional
PC-3 [6] = test: Cell cycle arrest in human PC3 cells assessed as accumulation at M phase by Hoechst staining based fluorescence assay; type: functional
Caco-2 [7] = test: Cytotoxicity against human Caco2 cells assessed as cell survival at 50 uM after 48 hrs by Hoechst 33342 staining based assay relative to control; type: functional; settings: Caco-2, 48 h, read-out: Survival
NCI-H727 [8] = test: Cell cycle arrest in human NCI-H727 cells harboring p53 mutant assessed as accumulation at S phase at 10 uM measured after 48 hrs by Hoechst/BrdU staining based fluorescence assay (reference value: 40.3%); type: functional
PC-3 [9] = test: Induction of apoptosis in human PC3 cells harboring p53 mutant assessed as increase in cleaved caspase3 at 2 times IC50 after 48 hrs by Hoechst staining based assay; type: functional, cell-based
[10] = Selectivity index, ratio of IC50 for human fibroblasts to IC50 for human MDA-MB-231 cells
HCT-116 [11] = test: Induction of apoptosis in human HCT116 cells harboring wild-type p53 assessed as increase in late apoptosis at 2 times IC50 after 48 hrs by YoPro/propidium iodide/Hoechst staining based assay; type: functional, cell-based
NCI-H727 [12] = test: Cell cycle arrest in human NCI-H727 cells harboring p53 mutant assessed as mitotic index at 10 uM measured after 48 hrs by Hoechst staining based fluorescence assay (reference value: 1.1); type: functional
PC-3 [13] = test: Cell cycle arrest in human PC3 cells harboring p53 mutant assessed as mitotic index at 25 uM measured after 48 hrs by Hoechst staining based fluorescence assay (reference value: 2.5); type: functional
MDA-MB-231 [14] = test: Induction of apoptosis in human MDA-MB-231 cells harboring p53 mutant assessed as increase in cleaved caspase3 at 2 times IC50 after 24 hrs by Hoechst staining based assay; type: functional, cell-based
MDA-MB-231 [15] = test: Cell cycle arrest in human MDA-MB-231 cells harboring p53 mutant assessed as accumulation at S phase at 10 uM measured after 48 hrs by Hoechst/BrdU staining based fluorescence assay (reference value: 42.2%); type: functional
MDA-MB-231 [16] = test: Cell cycle arrest in human MDA-MB-231 cells harboring p53 mutant assessed as mitotic index at 25 uM measured after 48 hrs by Hoechst staining based fluorescence assay (reference value: 2.1); type: functional
NCI-H727 [17] = test: Cell cycle arrest in human NCI-H727 cells harboring p53 mutant assessed as mitotic index at 25 uM measured after 48 hrs by Hoechst staining based fluorescence assay (reference value: 1.1); type: functional
HCT-116 [18] = test: Induction of apoptosis in human HCT116 cells harboring wild-type p53 assessed as upregulation of cyclinB1 measured after 48 hrs by Hoechst staining based assay; type: functional, cell-based
PC-3 [19] = test: Induction of apoptosis in human PC3 cells harboring p53 mutant assessed as increase in late apoptosis at 2 times IC50 after 48 hrs by YoPro/propidium iodide/Hoechst staining based assay; type: functional, cell-based
HCT-116 [20] = test: Induction of apoptosis in human HCT116 cells harboring wild-type p53 assessed as increase in early apoptosis at 2 times IC50 after 48 hrs by YoPro/propidium iodide/Hoechst staining based assay; type: functional, cell-based
Huh-7 [21] = test: Cell cycle arrest in human HuH7 cells assessed as mitotic index at 25 uM measured after 48 hrs by Hoechst staining based fluorescence assay (reference value: 2.2); type: functional
[22] = Selectivity index, ratio of IC50 for human fibroblasts to IC50 for human HuH7 cells
Huh-7 [23] = test: Cell cycle arrest in human HuH7 cells assessed as accumulation at S phase at 25 uM measured after 48 hrs by Hoechst/BrdU staining based fluorescence assay (reference value: 44%); type: functional
HCT-116 [24] = test: Cell cycle arrest in human HCT116 cells harboring wild-type p53 assessed as mitotic index at 25 uM measured after 48 hrs by Hoechst staining based fluorescence assay (reference value: 2.3); type: functional
MDA-MB-231 [25] = test: Cell cycle arrest in human MDA-MB-231 cells harboring p53 mutant assessed as accumulation at S phase at 25 uM measured after 48 hrs by Hoechst/BrdU staining based fluorescence assay (reference value: 42.2%); type: functional
PC-3 [26] = test: Cell cycle arrest in human PC3 cells harboring p53 mutant assessed as accumulation at S phase at 10 uM measured after 48 hrs by Hoechst/BrdU staining based fluorescence assay (reference value: 40.8%); type: functional
MCF7 = test: Induction of apoptosis in human MCF7 cells harboring wild-type p53 assessed as upregulation of cyclinB1 measured after 18 hrs by Hoechst staining based assay; type: functional, cell-based
[27] = Selectivity index, ratio of IC50 for human fibroblasts to IC50 for human RL cells
HaCaT = test: Cell cycle arrest in human HaCaT cells harboring […] p53 assessed as accumulation at S phase at 10 uM measured after 48 hrs by Hoechst/BrdU staining based fluorescence assay (reference value: 52.3%); type: functional
MDA-MB-231 [28] = test: Induction of apoptosis in human MDA-MB-231 cells harboring p53 mutant assessed as increase in early apoptosis at 2 times IC50 after 24 hrs by YoPro/propidium iodide/Hoechst staining based assay; type: functional, cell-based
Caco-2 [29] = test: Cell cycle arrest in human Caco2 cells assessed as accumulation at M phase by Hoechst staining based fluorescence assay; type: functional
[30] = Selectivity index, ratio of IC50 for human fibroblasts to IC50 for human MCF7 cells
MDA-MB-231 [31] = test: Cell cycle arrest in human MDA-MB-231 cells assessed as accumulation at M phase by Hoechst staining based fluorescence assay; type: functional
[32] = Selectivity index, ratio of IC50 for human fibroblasts to IC50 for human Caco2 cells
HCT-116 [33] = test: Induction of apoptosis in human HCT116 cells harboring wild-type p53 assessed as upregulation of p21 measured after 48 hrs by Hoechst staining based fluorescence assay; type: functional, cell-based
RL = test: Cytotoxicity against human RL assessed as cell viability after 48 hrs by Hoechst 33342 staining based assay; type: functional
NCI-H727 [34] = test: Cytotoxicity against human NCI-H727 cells assessed as cell survival at 50 uM after 48 hrs by Hoechst 33342 staining based assay relative to control; type: functional; settings: NCI-H727, 48 h, read-out: Survival
NCI-H727 [35] = test: Cell cycle arrest in human NCI-H727 cells assessed as accumulation at G1/S phase by Hoechst staining based fluorescence assay; type: functional
HCT-116 [36] = test: Cytotoxicity against human HCT116 cells assessed as cell viability after 48 hrs by Hoechst 33342 staining based assay; type: functional; settings: HCT-116, 48 h

With `COc1cc(OC)c(C(=O)/C=C/c2ccccc2SC)c(OC)c1` the IC50 (NCI-H727 [1]) was 8.7 µM, the “Ratio IC50” value [2] was 4.1 and the IC50 (Fibroblast) was greater than 20 µM. The “Ratio IC50” value [3] was 3.7, the Activity (PC-3 [4]) was “Active” and the Activity_index (MDA-MB-231 [5]) was 18. The Activity (PC-3 [6]) was “Active”, the viability at 50 µM (Caco-2 [7]) was 17% and the Activity (NCI-H727 [8]) was 35%. The Activity (PC-3 [9]) was “Active”, the “Ratio IC50” value [10] was 3.2 and the Activity (HCT-116 [11]) was “Active”. For the same compound, the Activity_index (NCI-H727 [12]) was 1, the Activity_index (PC-3 [13]) was 0.3 and the Activity (MDA-MB-231 [14]) was “Active”. It also gave an Activity (MDA-MB-231 [15]) of 48%, an Activity_index (MDA-MB-231 [16]) of 13.2 and an Activity_index (NCI-H727 [17]) of 0. For the same compound, the Activity (HCT-116 [18]) was “Active”, the Activity (PC-3 [19]) was “Active” and the Activity (HCT-116 [20]) was “Active”. The Activity_index (Huh-7 [21]) was 0.4, the “Ratio IC50” value [22] was 2.3 and the Activity (Huh-7 [23]) was 0.3%. For the same compound, the Activity_index (HCT-116 [24]) was 0.4, the Activity (MDA-MB-231 [25]) was 16% and the Activity (PC-3 [26]) was 30%. For the same compound, the Activity (MCF7) was “Active”, the “Ratio IC50” value [27] was 3.8 and the Activity (HaCaT) was 24%. The Activity (MDA-MB-231 [28]) was “Active”, the Activity (Caco-2 [29]) was “Active” and the “Ratio IC50” value [30] was 3.4. For the same compound, the Activity (MDA-MB-231 [31]) was “Active”, the “Ratio IC50” value [32] was 3.6 and the Activity (HCT-116 [33]) was “Active”. The IC50 (RL) was 8.3 µM, the viability at 50 µM (NCI-H727 [34]) was 1% and the Activity (NCI-H727 [35]) was “Active”. For the same compound, the IC50 (HCT-116 [36]) was 6.8 µM.
